Measured values from PMC4939597, “Mechanism for insulin-like peptide 5 distinguishing the homologous relaxin family peptide receptor 3 and 4” (Scientific Reports, 2016).

Experiments:
human RXFP3 [1] = target: T1, human RXFP3 (Homo sapiens, UniProt Q9NSD7); assay: Receptor activation assay, CRE-controlled NanoLuc reporter; type: cell-based; settings: for fold lower activation potency towards RXFP3 than relaxin-3: lower than relaxin-3; for fold lower activation potency towards RXFP3 compared with wild-type R3/I5: lower than wild-type R3/I5
T1 construct: expressed in transfected cells; host or cells: HEK293T
T1 sequence (Q9NSD7 1-469): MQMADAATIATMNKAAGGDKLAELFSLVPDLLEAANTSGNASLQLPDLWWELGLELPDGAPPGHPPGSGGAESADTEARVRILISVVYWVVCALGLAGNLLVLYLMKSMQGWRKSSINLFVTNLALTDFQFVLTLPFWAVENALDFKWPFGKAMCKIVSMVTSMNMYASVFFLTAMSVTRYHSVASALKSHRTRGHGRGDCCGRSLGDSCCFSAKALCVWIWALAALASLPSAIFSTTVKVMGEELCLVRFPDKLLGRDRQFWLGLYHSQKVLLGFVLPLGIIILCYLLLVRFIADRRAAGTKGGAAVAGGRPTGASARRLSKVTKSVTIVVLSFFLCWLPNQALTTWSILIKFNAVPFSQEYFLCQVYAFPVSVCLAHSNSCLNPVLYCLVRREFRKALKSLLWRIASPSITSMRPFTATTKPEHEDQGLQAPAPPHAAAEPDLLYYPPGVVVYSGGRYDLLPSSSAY
Procedure: (§1) Figure 4 Receptor activation activities of the mature INSL5 and R3/I5 mutants towards RXFP3 and RXFP4. HEK293T cells transiently cotransfected by human RXFP3 or human RXFP4 and a CRE-controlled NanoLuc reporter were used for the activation assays. The measured data were expressed as mean ± SE (n = 3) and fitted to sigmoidal or linear curves using the software SigmaPlot 10.0.
(§2) The receptor activation assays of the mature INSL5 and R3/I5 mutants were carried out using a cAMP-response element (CRE)-controlled NanoLuc reporter according to our previous procedure. Briefly, HEK293T cells were transiently cotransfected with the expression construct of human RXFP3 or human RXFP4 and the CRE-controlled NanoLuc reporter vector pNL1.2/CRE. Next day, the transfected cells were trypsinised, seeded into a 96-well plate, and continuously cultured for 24–36 h to ~90% confluence. To start activation assay, the medium was removed and the activation solution (serum-free DMEM medium plus 1% bovine serum albumin) containing 1.0 μM of forskolin and varied concentrations of peptide was added (100 μl/well). After being continuously cultured at 37 °C for 4 h, the activation solution was removed and the cells were lysed by lysis solution (100 μl/well, from Promega). The cell lysate was then transferred to a white opaque 96-well plate (50 μl/well), mixed with the freshly diluted substrate (50 μl/well), and bioluminescence was immediately measured on a SpectraMax M5 plate reader (Molecular Devices) using the luminescence mode. The measured bioluminescence data were expressed as mean ± SE (n = 3) and fitted to sigmoidal or linear curves using the SigmaPlot10.0 software.

human RXFP4 [2] = target: T2, human RXFP4 (Homo sapiens, UniProt Q8TDU9); assay: Receptor binding assay, competition with NanoLuc-conjugated R3/I5 tracer; settings: lower than wild-type R3/I5
T2 construct: expressed in transfected cells; host or cells: HEK293T
Procedure: (§3) Figure 3 Receptor binding activities of the mature INSL5 and R3/I5 mutants towards RXFP3 and RXFP4. A NanoLuc-conjugated R3/I5 peptide was used as tracer and HEK293T cells transiently overexpressing human RXFP3 or human RXFP4 were used as receptor source. The tracer concentration used in these assays was 0.5 nM. The nonspecific binding was obtained by competition with 1.0 μM of relaxin-3. The measured data were expressed as mean ± SE (n = 3) and fitted to sigmoidal curves using the software SigmaPlot 10.0.
(§4) The receptor binding assays of the mature INSL5 and R3/I5 mutants were carried out using a NanoLuc-conjugated R3/I5 peptide as tracer and the human embryonic kidney (HEK) 293T cells transiently overexpressing human RXFP3 or human RXFP4 as receptor source. Nonspecific binding was obtained by competition with 1.0 μM of human relaxin-3. Briefly, HEK293T cells were transiently transfected with the expression construct of human RXFP3 or human RXFP4. Next day, the transfected cells were trypsinised, seeded into a 96-well plate, and continuously cultured for 24–36 h to confluence. To start binding assay, the medium was removed and the binding solution (serum-free DMEM medium plus 1% bovine serum albumin) containing 0.5 nM of the NanoLuc-conjugated R3/I5 tracer and varied concentrations of competitor was added (100 μl/well). After incubation at 21 °C for 2 h, the binding solution was removed and the cells were washed twice by ice-cold phosphate-buffered saline (200 μl/well for each wash). Thereafter, the cells were lysed by lysis solution (100 μl/well, from Promega, Madison, WI, USA) and the cell lysate was transferred to a white opaque 96-well plate (50 μl/well). After mixing with the freshly diluted substrate (50 μl/well), bioluminescence was immediately measured on a SpectraMax M5 plate reader (Molecular Devices, Sunnyvale, CA, USA) using the luminescence mode. The measured bioluminescence data were expressed as mean ± SE (n = 3) and fitted to sigmoidal curves using the SigmaPlot10.0 software.

human RXFP4 [3] = target: T2, human RXFP4; assay: Receptor activation assay, CRE-controlled NanoLuc reporter; type: cell-based; settings: lower than wild-type R3/I5
Procedure: as §1, §2

human RXFP3 [4] = target: T1, human RXFP3; assay: Receptor binding assay, competition with NanoLuc-conjugated R3/I5 tracer; settings: lower than wild-type R3/I5
Procedure: as §3, §4

T2 sequence (Q8TDU9 whole entry): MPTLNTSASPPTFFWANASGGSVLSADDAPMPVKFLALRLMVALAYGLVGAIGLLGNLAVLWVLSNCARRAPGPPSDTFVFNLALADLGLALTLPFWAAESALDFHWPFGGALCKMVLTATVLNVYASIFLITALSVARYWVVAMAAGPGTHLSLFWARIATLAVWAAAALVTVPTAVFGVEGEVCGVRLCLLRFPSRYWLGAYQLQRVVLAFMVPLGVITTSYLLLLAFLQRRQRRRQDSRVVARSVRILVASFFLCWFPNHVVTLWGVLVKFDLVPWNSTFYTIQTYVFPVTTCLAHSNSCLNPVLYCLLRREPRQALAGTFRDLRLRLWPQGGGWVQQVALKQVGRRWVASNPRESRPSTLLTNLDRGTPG

SMILES | fold lower activation potency towards RXFP3 than relaxin-3 (human RXFP3 [1]) | fold lower activation potency towards RXFP3 compared with wild-type R3/I5 (human RXFP3 [1]) | further results
CC[C@H](C)[C@@H]1NC(=O)[C@H](Cc2ccccc2)NC(=O)[C@H]([C@@H](C)CC)NC(=O)[C@H](C(C)C)NC(=O)[C@H]([C@@H](C)O)NC(=O)[C@H](CCCNC(=N)N)NC(=O)[C@H]([C@@H](C)CC)NC(=O)[C@H](Cc2ccc(O)cc2)NC(=O)[C@H](CCC(=O)O)NC(=O)[C@H](CCCNC(=N)N)NC(=O)CNC(=O)[C@@H](NC(=O)[C@H](CC(C)C)NC(=O)[C@H](CCCNC(=N)N)NC(=O)[C@@H](NC(=O)[C@H](CO)NC(=O)[C@H](CCC(=O)O)NC(=O)[C@@H](N)CCCCN)C(C)C)CSSC[C@@H]2NC(=O)[C@@H](NC(=O)[C@H](CC(C)C)NC(=O)[C@@H](NC(=O)[C@H](CCC(N)=O)NC(=O)[C@H](CC(C)C)NC(=O)[C@H](CC(=O)O)NC(=O)[C@@H](N)CCC(N)=O)[C@@H](C)O)CSSC[C@H](NC(=O)CNC(=O)[C@H](CC(=O)O)NC(=O)[C@H]([C@@H](C)O)NC2=O)C(=O)N[C@@H](CO)C(=O)N[C@@H](CCSC)C(=O)N[C@@H]([C@@H](C)O)C(=O)N[C@@H](CC(=O)O)C(=O)N[C@@H](CC(C)C)C(=O)N[C@@H](CO)C(=O)N[C@@H](C)C(=O)N[C@@H](CC(C)C)C(=O)N[C@H](C(=O)O)CSSC[C@@H](C(=O)NCC(=O)NCC(=O)N[C@@H](CO)C(=O)N[C@@H](CCCNC(=N)N)C(=O)N[C@@H](Cc2c[nH]c3ccccc23)C(=O)O)NC1=O [[L(B9)R,Y(B17)F,A(B20)G,S(B21)G]INSL5] | ~ 100 fold |  | 
CC[C@H](C)[C@@H]1NC(=O)[C@H](Cc2ccccc2)NC(=O)[C@H](CCC(=O)O)NC(=O)[C@H](CCCNC(=N)N)NC(=O)CNC(=O)[C@@H](NC(=O)[C@H](CC(C)C)NC(=O)[C@H](CCCCN)NC(=O)[C@@H](NC(=O)CNC(=O)[C@H](Cc2ccc(O)cc2)NC(=O)[C@@H]2CCCN2C(=O)[C@H](C)NC(=O)[C@H](C)NC(=O)[C@@H](N)CCCNC(=N)N)C(C)C)CSSC[C@@H]2NC(=O)[C@@H](NC(=O)[C@H](CC(C)C)NC(=O)[C@@H](NC(=O)[C@H](CCC(N)=O)NC(=O)[C@H](CC(C)C)NC(=O)[C@H](CC(=O)O)NC(=O)[C@@H](N)CCC(N)=O)[C@@H](C)O)CSSC[C@H](NC(=O)CNC(=O)[C@H](CC(=O)O)NC(=O)[C@H]([C@@H](C)O)NC2=O)C(=O)N[C@@H](CO)C(=O)N[C@@H](CCSC)C(=O)N[C@@H]([C@@H](C)O)C(=O)N[C@@H](CC(=O)O)C(=O)N[C@@H](CC(C)C)C(=O)N[C@@H](CO)C(=O)N[C@@H](C)C(=O)N[C@@H](CC(C)C)C(=O)N[C@H](C(=O)O)CSSC[C@@H](C(=O)NCC(=O)NCC(=O)N[C@@H](CO)C(=O)N[C@@H](CCCNC(=N)N)C(=O)N[C@@H](Cc2c[nH]c3ccccc23)C(=O)O)NC(=O)[C@H]([C@@H](C)O)NC(=O)[C@H](Cc2ccc(O)cc2)NC(=O)[C@H]([C@@H](C)CC)NC(=O)[C@H](C(C)C)NC(=O)[C@H](C)NC(=O)[C@H](CCCNC(=N)N)NC1=O [[F(B20)Y]R3/I5] |  | ~ 3 fold | fold lower binding potency towards RXFP4 compared with wild-type R3/I5 (human RXFP4 [2]): ~ 3 fold; fold lower activation potency towards RXFP4 than wild-type R3/I5 (human RXFP4 [3]): ~ 15 fold
CC[C@H](C)[C@@H]1NC(=O)[C@H](Cc2ccccc2)NC(=O)[C@H]([C@@H](C)CC)NC(=O)[C@H](C(C)C)NC(=O)[C@H]([C@@H](C)O)NC(=O)[C@H](CCCNC(=N)N)NC(=O)[C@H]([C@@H](C)CC)NC(=O)[C@H](Cc2ccc(O)cc2)NC(=O)[C@H](CCC(=O)O)NC(=O)[C@H](CCCNC(=N)N)NC(=O)CNC(=O)[C@@H](NC(=O)[C@H](CC(C)C)NC(=O)[C@H](CCCNC(=N)N)NC(=O)[C@@H](NC(=O)[C@H](CO)NC(=O)[C@H](Cc2ccc(O)cc2)NC(=O)[C@@H](N)CCCCN)C(C)C)CSSC[C@@H]2NC(=O)[C@@H](NC(=O)[C@H](CC(C)C)NC(=O)[C@@H](NC(=O)[C@H](CCC(N)=O)NC(=O)[C@H](CC(C)C)NC(=O)[C@H](CC(=O)O)NC(=O)[C@@H](N)CCC(N)=O)[C@@H](C)O)CSSC[C@H](NC(=O)CNC(=O)[C@H](CC(=O)O)NC(=O)[C@H]([C@@H](C)O)NC2=O)C(=O)N[C@@H](CO)C(=O)N[C@@H](CCSC)C(=O)N[C@@H]([C@@H](C)O)C(=O)N[C@@H](CC(=O)O)C(=O)N[C@@H](CC(C)C)C(=O)N[C@@H](CO)C(=O)N[C@@H](C)C(=O)N[C@@H](CC(C)C)C(=O)N[C@H](C(=O)O)CSSC[C@@H](C(=O)NCC(=O)NCC(=O)N[C@@H](CO)C(=O)N[C@@H](CCCNC(=N)N)C(=O)N[C@@H](Cc2c[nH]c3ccccc23)C(=O)O)NC1=O | ~ 20 fold |  | fold higher activation potency towards RXFP3 than its parent mutant (human RXFP3 [1]; higher than the 4-mutation INSL5): ~ 5 fold
CC[C@H](C)[C@@H]1NC(=O)[C@H](Cc2ccccc2)NC(=O)[C@H](CCC(=O)O)NC(=O)[C@H](CC(C)C)NC(=O)CNC(=O)[C@@H](NC(=O)[C@H](CC(C)C)NC(=O)[C@H](CCCCN)NC(=O)[C@@H](NC(=O)CNC(=O)[C@H](Cc2ccc(O)cc2)NC(=O)[C@@H]2CCCN2C(=O)[C@H](C)NC(=O)[C@H](C)NC(=O)[C@@H](N)CCCNC(=N)N)C(C)C)CSSC[C@@H]2NC(=O)[C@@H](NC(=O)[C@H](CC(C)C)NC(=O)[C@@H](NC(=O)[C@H](CCC(N)=O)NC(=O)[C@H](CC(C)C)NC(=O)[C@H](CC(=O)O)NC(=O)[C@@H](N)CCC(N)=O)[C@@H](C)O)CSSC[C@H](NC(=O)CNC(=O)[C@H](CC(=O)O)NC(=O)[C@H]([C@@H](C)O)NC2=O)C(=O)N[C@@H](CO)C(=O)N[C@@H](CCSC)C(=O)N[C@@H]([C@@H](C)O)C(=O)N[C@@H](CC(=O)O)C(=O)N[C@@H](CC(C)C)C(=O)N[C@@H](CO)C(=O)N[C@@H](C)C(=O)N[C@@H](CC(C)C)C(=O)N[C@H](C(=O)O)CSSC[C@@H](C(=O)NCC(=O)NCC(=O)N[C@@H](CO)C(=O)N[C@@H](CCCNC(=N)N)C(=O)N[C@@H](Cc2c[nH]c3ccccc23)C(=O)O)NC(=O)[C@H]([C@@H](C)O)NC(=O)[C@H](Cc2ccccc2)NC(=O)[C@H]([C@@H](C)CC)NC(=O)[C@H](C(C)C)NC(=O)[C@H](C)NC(=O)[C@H](CCCNC(=N)N)NC1=O [[R(B12)L]R3/I5] |  | ~ 1600 fold | fold lower binding potency towards RXFP3 compared with wild-type R3/I5 (human RXFP3 [4]): ~ 110 fold
